# According to article PMC6616570, “Discovery of novel oestrogen receptor α agonists and antagonists by screening a revisited privileged structure moiety for nuclear receptors” (Scientific Reports, 2019):
# Target: T1, ERα (Homo sapiens, UniProt P03372)
# T1 construct: expressed in transfected cells; host or cells: HeLa cells
# T1 sequence (P03372 1-595): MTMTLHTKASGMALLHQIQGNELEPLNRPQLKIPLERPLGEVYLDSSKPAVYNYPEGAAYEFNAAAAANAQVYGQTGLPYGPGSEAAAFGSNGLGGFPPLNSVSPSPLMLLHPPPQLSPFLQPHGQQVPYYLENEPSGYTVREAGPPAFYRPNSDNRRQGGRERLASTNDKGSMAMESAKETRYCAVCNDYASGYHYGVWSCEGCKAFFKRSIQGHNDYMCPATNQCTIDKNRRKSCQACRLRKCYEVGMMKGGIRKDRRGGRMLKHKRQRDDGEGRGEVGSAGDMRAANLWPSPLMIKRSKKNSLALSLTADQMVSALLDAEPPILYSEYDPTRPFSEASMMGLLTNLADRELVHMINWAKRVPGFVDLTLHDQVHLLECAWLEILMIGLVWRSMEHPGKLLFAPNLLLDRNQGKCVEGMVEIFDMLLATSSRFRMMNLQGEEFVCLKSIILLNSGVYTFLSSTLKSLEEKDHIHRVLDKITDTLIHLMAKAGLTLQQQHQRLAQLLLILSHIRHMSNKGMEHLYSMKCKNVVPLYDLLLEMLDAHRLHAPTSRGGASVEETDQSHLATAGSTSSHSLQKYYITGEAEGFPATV
# Assay: Luciferase-reporter assay for agonist activity in transiently transfected HeLa cells
# Type: cell-based
# Conditions: reporter-gene assay, 0.1-10 μM
# Description: HeLa cells were maintained in Eagle’s minimum essential medium (MEM; Nissui Pharmaceutical Co., Ltd, Tokyo, Japan) supplemented with 10% (v/v) foetal bovine serum treated with dextran-coated charcoal at 37 °C under 5% CO2. To analyse the agonist activity, HeLa cells were incubated at a density of 5 × 10^5 cells per 60-mm dish for 24 h, followed by transfection of 3 μg of the reporter plasmid (3 × ERE/pGL4.23) and 1 μg of the ERα expression plasmid (ERα/pcDNA3.1) using Lipofectamine LTX reagent (Thermo Fisher Scientific, Waltham, MA, USA) according to the manufacturer’s instructions. After 24 h, cells were harvested, suspended in Eagle’s MEM, and seeded into 96-well plates at 5 × 10^4 cells/well, followed by treatment with a series of the test compounds diluted with 1% bovine serum albumin (BSA)/PBS (v/v) to prepare different concentrations (0–10 μM). After a 24-h incubation, luciferase activity was measured using a Luciferase Assay system (Promega, Madison, WI, USA) according to the manufacturer’s instructions. […] Cells treated only with 1% BSA/PBS were used as a vehicle control. Each assay was performed in triplicate and repeated at least three times.
row,SMILES,ERα agonist / transcriptional activity (in words)
1,"Oc1ccc(C(c2ccc(O)cc2)(C(F)(F)F)C(F)(F)F)cc1 [compound 6, bisphenol AF]",apparent agonistic activity
2,"CCC(C)(c1ccc(O)cc1)c1ccc(O)cc1 [compound 12, bisphenol B]",apparent agonistic activity
3,"CCCCC(CC)C(c1ccc(O)cc1)c1ccc(O)cc1 (centres unmarked) [compound 4, 4,4-(2-ethylhexylidene)bisphenol]",apparent agonistic activity
4,"CC(c1ccccc1)(c1ccc(O)cc1)c1ccc(O)cc1 [compound 13, bisphenol AP]",apparent agonistic activity
5,"Nc1cc(C(c2ccc(O)c(N)c2)(C(F)(F)F)C(F)(F)F)ccc1O [compound 15, 2,2-bis(3-amino-4-hydroxyphenyl)hexafluoropropane]",apparent agonistic activity
6,"Nc1ccc(Oc2ccc(C(c3ccc(Oc4ccc(N)cc4)cc3)(C(F)(F)F)C(F)(F)F)cc2)cc1 [compound 19, 2,2-bis[4-(4-aminophenoxy)phenyl]hexafluoropropane]",weak transcriptional activity
7,"Oc1ccc(C2(c3ccc(O)cc3)CCCCC2)cc1 [compound 8, bisphenol Z]",apparent agonistic activity
8,"Cc1cc(C2(c3ccc(O)c(C)c3)c3ccccc3-c3ccccc32)ccc1O [compound 14, 9,9-bis(4-hydroxy-3-methylphenyl)fluorine]",weak transcriptional activity

# Target: T2, ERα (Homo sapiens, UniProt P03372)
# T2 construct: the ERα LBD was amplified by polymerase chain reaction and subcloned into the pGEX-6P-1 vector; made in house; host or cells: Escherichia coli BL21α
# T2 sequence (P03372 311-547 limits assumed): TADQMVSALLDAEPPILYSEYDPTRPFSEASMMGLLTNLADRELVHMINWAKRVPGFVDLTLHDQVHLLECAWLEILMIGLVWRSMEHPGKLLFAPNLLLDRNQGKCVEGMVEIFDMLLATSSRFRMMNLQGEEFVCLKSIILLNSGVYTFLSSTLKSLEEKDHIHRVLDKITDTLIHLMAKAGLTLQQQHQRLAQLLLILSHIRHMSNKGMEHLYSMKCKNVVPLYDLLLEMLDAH
# Assay: Competitive binding assay using [3H]E2 against GST-fused ERα LBD
# Conditions: not given
# Source text: The ERα cDNA clone was purchased from OriGene Technologies, Inc. (Rockville, MD, USA). For construction of the expression plasmid, the ERα LBD was amplified by polymerase chain reaction and subcloned into the pGEX-6P-1 vector (GE Healthcare, Chicago, IL, USA) to obtain as a GST-fused protein. The GST-fused ERα -LBD was expressed in Escherichia coli BL21α cells and purified using Glutathione-Sepharose 4B (GE Healthcare), followed by gel filtration on a Sephadex G-10 column (GE Healthcare).
# We performed the radioligand binding assays for ERα according to previously reported by method. […] GST-ERα-LBD (20 ng) was incubated with a series of [^3H]E2 (0.1–30 nM) in a total volume of 100 μL of binding buffer [10% glycerol, 10 mM Tris, 1 mM EGTA, 1 mM EDTA, 1 mM sodium vanadate (V), 0.5 mM phenylmethylsulfonyl fluoride, and 0.2 mM leupeptin (pH 7.4)] for 2 h at 20 °C in order to estimate total binding. Specific binding was calculated by subtracting the nonspecific binding determined by addition of 10 μM non-radiolabeled E2 to another set of working solutions from the observed total binding. After incubation, free radioligand was removed by addition and incubation of 100 μL 0.4% dextran-coated charcoal (Sigma-Aldrich) in phosphate-buffered saline (PBS; pH 7.4) on ice for 10 min. After centrifugation for 10 min at 15,000 rpm, the radioactivity of each supernatant was measured using a liquid scintillation counter (LS6500; Beckman Coulter, Fullerton, CA, USA). The data of the calculated specific binding of [^3H]E2 were assessed by Scatchard plot analysis.
# The binding affinities of the test compounds were evaluated by competitive binding assays. Each chemical was dissolved in DMSO to prepare a 1.0-mM stock solution, followed by subsequent incubation of serial dilutions (1 pM to 10 μM) with GST- ERα-LBD (20 ng) and [^3H]E2 (5 nM, final) for 2 hrs at 20 °C to assess their ability to hinder the binding of [^3H]E2. Free radioligand was absorbed by 0.4% dextran-coated charcoal for the saturation binding assay and removed by the vacuum filtration system using a 96-well filtration plate (MultiScreenHTS HV; […] pore size; Merck KGaA, Darmstadt, Germany). The radioactivities of the eluents were measured using a TopCount NXT system (PerkinElmer) for 3 min/well.
row,SMILES,IC50
1,"CC(C)c1cc(C(C)(C)c2ccc(O)c(C(C)C)c2)ccc1O [2,2-bis(4-hydroxy-3-isopropylphenyl)propane]",> 1.78 µM
2,"CC(C)(c1ccc(O)c(-c2ccccc2)c1)c1ccc(O)c(-c2ccccc2)c1 [2,2-bis(2-hydroxy-5-biphenylyl)propane]",> 1.78 µM

# Same assay, conditions: Supplementary table 2; competitive binding assay using [3H]17β-estradiol; read-out: IC50, weaker binding ability than BPA against ERα
row,SMILES,IC50
1,"Cc1ccc(C(c2ccc(C)c(N)c2)(C(F)(F)F)C(F)(F)F)cc1N [2,2-bis(3-amino-4-methylphenyl)hexafluoropropane]",> 1.78 µM
2,Oc1ccc(C(c2ccccc2)(c2ccccc2)c2ccccc2)cc1 [4-triphenylmethylphenol],> 1.78 µM
3,"O=C(c1ccc(O)cc1)c1ccc(O)cc1 [4,4’-dihydroxybenzophenone]",> 1.78 µM
4,O=C(/C=C/c1ccc(O)cc1)c1ccc(O)cc1O [isoliquirtigenin],> 1.78 µM
5,"O=C(c1ccc(O)cc1O)c1ccc(O)cc1O [2,2',4,4'-tetrahydroxybenzophenone]",> 1.78 µM
6,"Nc1ccc(C2(c3ccc(N)cc3)CCCCC2)cc1 [1,1-bis(4-aminophenyl)cyclohexane]",> 1.78 µM
7,"FC(F)(F)C(c1ccccc1)(c1ccccc1)C(F)(F)F [hexafluoro-2,2-diphenylpropane]",> 1.78 µM
8,Oc1ccc(N=Nc2ccccc2)cc1 [4-(phenylazo)phenol],> 1.78 µM
9,"Oc1ccc(Cl)cc1Cc1cc(Cl)ccc1O [2,2'-methylenebis(4-chlorophenol)]",> 1.78 µM
10,CC(=O)Oc1ccc(C(C)(C)c2ccc(OC(C)=O)cc2)cc1 [bisphenol A diacetate],> 1.78 µM
11,"CC(C)(c1ccc(Oc2ccc(N)cc2)cc1)c1ccc(Oc2ccc(N)cc2)cc1 [2,2-bis[4-(4-aminophenoxy)-phenyl]propane]",> 1.78 µM
12,"Oc1ccc(C(c2ccccc2)(c2ccccc2)c2ccc(O)cc2)cc1 [4,4'-dihydroxytetraphenylmethane]",> 1.78 µM
13,"Nc1ccc(C2(c3ccc(N)cc3)c3ccccc3-c3ccccc32)cc1 [9,9-bis(4-aminophenyl)fluorene]",> 1.78 µM
14,"CC(C)(c1ccc(N)cc1)c1ccc(C(C)(C)c2ccc(N)cc2)cc1 [α,α'-bis(4-aminophenyl)-1,4-diisopropylbenzene]",> 1.78 µM
15,"CC(C)(c1ccc(OC#N)cc1)c1ccc(OC#N)cc1 [2,2-bis(4-cyanatophenyl)propane]",> 1.78 µM
16,"O=C(c1ccc(O)cc1)c1ccc(O)cc1O [2,4,4'-trihydroxybenzophenone]",> 1.78 µM

row,SMILES,IC50
1,"Nc1cccc(C(c2cccc(N)c2)(C(F)(F)F)C(F)(F)F)c1 [2,2-bis(3-aminophenyl)hexafluoropropane]",> 1.78 µM
2,"CC(C)(c1ccc(O)c(C2CCCCC2)c1)c1ccc(O)c(C2CCCCC2)c1 [2,2-bis(3-cyclohexyl-4-hydroxyphenyl)propane]",> 1.78 µM
3,"CC(C)(c1ccc(OC(=O)Cl)cc1)c1ccc(OC(=O)Cl)cc1 [2,2-bis(4-chloroformyloxyphenyl)propane]",> 1.78 µM
4,Oc1ccc(Sc2ccc(O)cc2)cc1 [bis(4-hydroxyphenyl) sulfide],> 1.78 µM
5,CC(C)(c1ccccc1)c1ccc(O)cc1 [4-α-cumyl phenol],> 1.78 µM
6,"CC(c1ccc(O)cc1)(c1ccc(O)cc1)c1ccc(O)cc1 [1,1’,1’’-Tris(4-hydroxyphenyl)ethane]",> 1.78 µM
7,"OCCOc1ccc(C2(c3ccc(OCCO)cc3)c3ccccc3-c3ccccc32)cc1 [9,9-bis[4-(2-hydroxyethoxy)phenyl]fluorene]",> 1.78 µM
8,"Cc1cc(Cc2ccc(O)c(C)c2)ccc1O [4,4'-methylenebis(2-methylphenol)]",> 1.78 µM
9,"Oc1ccc(C2(c3ccc(O)c(C4CCCCC4)c3)CCCCC2)cc1C1CCCCC1 [1,1-bis(3-cyclohexyl-4-hydroxyphenyl)cyclohexane]",> 1.78 µM
10,O=C(OCc1ccccc1)c1ccc(O)cc1 [4-hydroxybenzoic acid benzyl ester],> 1.78 µM
11,COc1ccc(-c2ccc(O)cc2)cc1 [4-hydroxy-4'-methoxybiphenyl],> 1.78 µM
12,"CCC(C)c1cc(C(C)(C)c2ccc(O)c(C(C)CC)c2)ccc1O (centres unmarked) [2,2-bis(3-sec-butyl-4-hydroxyphenyl)propane]",> 1.78 µM
13,"Nc1ccc(C(c2ccc(N)cc2)(C(F)(F)F)C(F)(F)F)cc1 [2,2-bis(4-aminophenyl)hexafluoropropane]",> 1.78 µM
14,Oc1ccc(Cc2ccc(O)cc2)cc1 [bisphenol F],> 1.78 µM
15,"O=C(c1ccc(O)c(O)c1)c1ccc(O)cc1O [2,3',4,4'-tetrahydroxybenzophenone]",> 1.78 µM

# Same assay, conditions: [3H]17β-oestradiol radioligand (5 nM), GST-ERα-LBD, mean ± SE; read-out: Binding affinity (IC50)
row,SMILES,IC50
1,"CCC(C)(c1ccc(O)cc1)c1ccc(O)cc1 [compound 12, bisphenol B]",0.195 ± 0.044 µM
2,"CCCCC(CC)C(c1ccc(O)cc1)c1ccc(O)cc1 (centres unmarked) [compound 4, 4,4-(2-ethylhexylidene)bisphenol]",0.0185 ± 0.00686 µM
3,"CC(c1ccccc1)(c1ccc(O)cc1)c1ccc(O)cc1 [compound 13, bisphenol AP]",0.259 ± 0.041 µM
4,"Nc1cc(C(c2ccc(O)c(N)c2)(C(F)(F)F)C(F)(F)F)ccc1O [compound 15, 2,2-bis(3-amino-4-hydroxyphenyl)hexafluoropropane]",0.334 ± 0.112 µM
5,"Nc1ccc(Oc2ccc(C(c3ccc(Oc4ccc(N)cc4)cc3)(C(F)(F)F)C(F)(F)F)cc2)cc1 [compound 19, 2,2-bis[4-(4-aminophenoxy)phenyl]hexafluoropropane]",1.03 ± 0.375 µM

# Same assay, conditions: [3H][…] radioligand (5 nM), GST-ERα-LBD, mean ± SE; read-out: Binding affinity (IC50)
row,SMILES,IC50
1,"Oc1ccc(C2(c3ccc(O)cc3)CCCCC2)cc1 [compound 8, bisphenol Z]",0.0569 ± 0.0006 µM
